{"source": "patent US9981043B2", "about": "“Analgesic conjugates” (priority 2013, dated 2018)", "assay_type_in_all_cases": "in vivo", "key": {"control mice [1]": {"tested_on": "control mice", "assay": "Radiant tail flick antinociception, control (not pretreated) mice", "method": "Compounds were dissolved in 10% DMSO and then diluted to less than 1% DMSO in the test solutions. […] Compounds were administered in a 5-μl volume in conscious mice, either i.c.v. (Haley T J & McCormick W G, Br J Pharmacol Chemother, 1957, 12(1), 12-15) or i.t. (Hylden J L K & Wilcox G L, Eur. J. Pharmacol., 1980, 67(2-3), 313-316). Peak times were determined by comparing the percent maximal possible effect (% MPE) at 5, 10, 20 and 60 minutes after injection.\nThe tail flick assay is used first to test for antinociception as described by D'Amour and Smith (D'AMOUR FE & SMITH DL (1941) J. Pharmacol. Exp. Ther. 72(1):74-79) and modified by Dewey et al. (Dewey W L, Harris L S, Howes J F, & Nuite JA (1970) J. Pharmacol. Exp. Ther. 175(2):435-442). For the measurement of the tail-flick latency, mice are wrapped in a light cloth and held gently in one hand with the tail positioned in the apparatus (Tail Flick Analgesia Meter, Columbus Instruments, Columbus, Ohio) for radiant heat stimulus. The tail-flick response is elicited by applying radiant heat to the dorsal side of the tail. The intensity of the heat is set so that the mouse flicks its tail within 2 to 3 seconds. The test latency is measured before drug treatment (control) and again after the drug treatment (test) at the peak time of the compound; a 10 second maximum cut-off time is used to prevent damage to the tail. Antinociception is quantified according to the Harris L S & Pierson A K, J. Pharmacol. Exp. Ther., 1964, 143(2):141-148, as the percent maximal possible effect (% MPE), which is calculated as: % MPE=(Test−Control/10−Control)×100.\nAt least three groups of four to ten mice are used for each dose response curve. ED50 values with 95% confidence intervals (C.I.) are computed with GraphPad Prism 4 by using nonlinear regression methods."}, "control mice [2]": {"tested_on": "control mice", "assay": "Acute (24 hour) tolerance, tail flick, control mice", "conditions": "controls", "method": "Acute tolerance utilizing the radiant tail flick assay was measured by comparing the ED80-90 dose on day 1 to the same dose measured 24 hours later on the same mouse. For the LPS pretreated mice, no additional LPS was given to the mice for the acute tolerance test. […] However, the effect was less robust 72 hours after the initial LPS injection. Thus confirming that the acute tolerance test was accurate for the LPS pretreated mice."}, "[3]": {"tested_on": "C3H mice with bone cancer", "assay": "von Frey mechanical hyperalgesia, bone cancer (fibrosarcoma) mice", "method": "The mouse hind paw model of bone cancer was the third model of pain (Wacnik P W, et al., Pain Research & Management, 2000, 16, 615-637; and Wacnik P W, et al., J Neurosci, 2001, 21(23), 9355-9366). Cell Culture: National Collection of Type Cultures (NCTC) clone 2472 fibrosarcoma cells, originally derived from a connective tissue tumor in a C3H mouse, were obtained from the American Type Cell Culture Collection (Rockville, Md.). Cells were grown and maintained in accordance with standard cell culturing techniques. NCTC cells were grown to 80-90% confluence in 75 cm^2 flasks (Corning, Lowell, Mass.) in Dulbecco's Modification of Eagles Medium (Invitrogen, Carlsbad, Calif.) fortified with 10% Horse Serum and sodium bicarbonate. Cell cultures were housed in a water-jacketed incubator with 5% carbon dioxide at 37° C.\nCells were prepared for implantation by first pouring off the culture medium and washing with phosphate-buffered saline (PBS). Trypsin was added to flask and placed in incubator for 3 minutes. Upon detachment, cells were suspended in an ample amount of culture medium to terminate enzymatic activity and centrifuged for 10 min at 1000 g. Fibrosarcoma cells were re-suspended in a known amount of PBS for counting, quantified on a hemacytometer, pelleted and re-suspended in PBS. Fibrosarcoma cells were again re-suspended to a final concentration of 2×10^5 cells in 20 μl. Initially, animals were anesthetized in a plexi-glass chamber using 3% isoflurane in 3 L/min oxygen. Once each mouse was completely anesthetized, a maintenance rate of 2% isoflurane in 1.5 L/min oxygen was maintained during the short implantation procedure. Tumor cells were manually injected by boring into the calcaneus bone using a 29½ gauge needle connected to a sterile 0.3 ml insulin syringe as previously described (19). Following injection, mice were allowed to recover in cages on a heating pad. Animals showing any signs of dysfunction (e.g. problems with ambulation, lethargy or excessive bleeding) or distress where euthanized according to CO2 guidelines.\nC3H mice were was placed under a clean glass cup on a wire mesh grid and allowed to acclimate for thirty minutes. Mechanical hypersensitivity was tested using a von Frey filament #3.61 (which produces a force of […]) to the plantar surface of both the left and right hind paw with enough force to cause it to bow slightly. Starting with the right hind paw, the number of positive responses out of a total of 10 applications was recorded followed by the left hind paw. Positive response was indicated by a sharp withdrawal or flinching behavior of the paw. Baseline von Frey measurements were obtained prior to treatment with CFA, tumor and saline controls. […] Subsequent measurements were taken at various time points after intrathecal (i.t.) injection of test compounds on days 3, 7, 10, 14, 17, and 21. % MPE was calculated ((Time-point value−Day# baseline)/(Day 0 baseline−day# baseline))*100 (Smeester B A, Al-Gizawiy M, & Beitz A J (2012) Evidence-Based Complementary and Alternative Medicine 2012:16). Animals with saline injection served as controls for tumor cell implantation and tumor-induced nociception. Behavioral assessments were conducted during the light cycle at approximately the same time each day. The investigator performing the von Frey testing was blinded to the animal and compound injected.\nA well-established rodent hind paw model of bone cancer pain (Wacnik P W, et al., J Neurosci. 2001, 21(23), 9355-66) was to examine the effects of representative bivalent ligands on tumor-induced nociception. The inbred C3H/He line is syngeneic to the fibrosarcoma cells used in these experiments and allows these cells to grow tumors without rejection. Male C3H mice were used for all experiments. Animals were maintained on a 12 hour light/dark cycle with food and water ad libitum.\nCells were prepared for implantation by first pouring off the culture medium and washing with phosphate-buffered saline (PBS). […]"}, "mice": {"tested_on": "mice", "assay": "Rota-Rod motor performance, CFA injected mice", "conditions": "i.t., after the 48 hour measurement post CFA", "method": "To first evaluate the effects of CFA injection on motor coordination, a group of 10 animals were tested on the Rotamex (Columbus Instruments Rotamex 4/8 instrument) for performance. Animals were trained three days prior to undergoing 3-5 minute trials on an accelerating rotating rod (0-20 RPMs). Motor performance was evaluated at 2, 4, 6, 24 and 48 hours post injection. Compound 4c was then injected i.t. and the motor performance was evaluated at 5 and 20 minutes. The time to the first fall were recorded and compared with controls (Kovacs K J, et al., Pain, 2008, 136, 75-84). The results for compound 4c are illustrated in FIG. 10."}}, "note": "Where “and” joins values, the source holds several entries; their conditions need not be identical. Equal values may be shown once. Entries after “also recorded” stand apart in the source; their conditions may differ."}
{"smiles": "Cc1cccc(C#Cc2cccc(OCCNC(=O)COCC(=O)NCCCCCNC(=O)COCC(=O)N[C@H]3CC[C@@]4(O)C5Cc6ccc(O)c7c6[C@@]4(CCN5C)[C@H]3O7)c2)n1", "note": "[Compound 4c, N-((4aS,7S,7aR,12bS)-4a,9-dihydroxy-3-methyl-2,3,4,4a,5,6,7,7a-octahydro-1H-4,12-methanobenzofuro[3,2-e]isoquinolin-7-yl)-2-((1-(3-((6-methylpyridin-2-yl)ethynyl)phenoxy)-4,8,16-trioxo-6-oxa-3,9,15-triazaheptadecan-17-yl)oxy)acetamide]", "values": [{"measurement": "agonist character", "setting": "control mice [1]; control mice, i.c.v.", "value": "partial agonist"}, {"measurement": "% MPE", "setting": "control mice [1]; controls, i.c.v., 250 pmol/mouse", "value": "71 ± 10", "unit": "% MPE"}, {"measurement": "ED50 (CI) i.t.", "setting": "control mice [1]; controls, i.t., tail flick", "value": 38.70, "unit": "pmol/mouse"}, {"measurement": "Tolerance", "setting": "control mice [2]; i.c.v.", "value": "No Tolerance"}, {"measurement": "Tolerance", "setting": "control mice [2]; i.t.", "value": "No Tolerance"}, {"measurement": "Tolerance", "setting": "[3]; bone cancer mice, i.t.", "value": "without tolerance; also recorded: absence of tolerance"}, {"measurement": "duration of significant antinociception", "setting": "[3]; bone cancer, PID 21, 1 nmol i.t.", "value": 12, "unit": "h"}, {"measurement": "duration of antinociception", "setting": "[3]; bone cancer, PID 21, single 10 nmol i.t.", "value": "24 h and > 24 h"}, {"measurement": "ED50 i.t.", "setting": "[3]; bone cancer, day 21, i.t.", "value": 0.01, "unit": "fmol/mouse"}, {"measurement": "antinociception in tumor-bearing mice", "setting": "[3]; bone cancer, i.t., beginning on PID 3", "value": "potent antinociception"}, {"measurement": "time on the Rotamex (time to first fall)", "setting": "mice", "value": "stayed on the Rotomex for a longer period of time"}]}
